Reference: US20250113823A1, “Arthropod Control Compositions” (priority 2022, published 2025)
Read-outs that look alike come from different tables or passages of the source.

Test system: Aedes aegypti
Test: Warm Body assay, mosquito landings on treated warm body
Type: in vivo
Conditions: for pest or weed control at 1 % / pest or weed control at 0.04 %: read-out: repellence; for pest or weed control at 0.0016 %: read-out: reduce the number of mosquito landings
Experimental: The arthropod controlling effect according to the present invention is determined on mosquitoes using an adapted Warm Body assay as defined in Kröber T, Kessler S, Frei J, Bourquin M, Guerin PM. An in vitro assay for testing mosquito controlling compounds employing a warm body and carbon dioxide as a behavioral activator. J Am Mosq Control Assoc. 2010; 26: 381-386. Further information is provided in the accompanying examples
The controlling effect, repellence & spatial repellence, according to the present invention is determined by testing the Warm Body assay against the yellow fever mosquito, Aedes aegypti Rockefeller strain. […] Observations of controlling efficacy were made on host-seeking females of uniform age, 5 to 10 days old selected as mentioned in the publication mentioned hereinabove. Tested hungry females had access to 10% sugar solution but were not blood-fed. Further information is provided in the accompanying examples.
The published protocol has been adapted in not manually counting the landing mosquitoes but automatically using an automatic counting software, the switch from Anopheles gambiae to A. aegypti led to a decrease of mosquitoes' number placed in the tested cage due to the size difference (i.e. 30 mosquitoes instead of 50) and to an increase of lighting as A. aegypti is a diurnal mosquitoes (i.e. 150 lux instead of 4 lux). Further information is provided in the accompanying examples. […]
The controlling effect according to the present invention was assessed using an adapted Warm Body assay as defined in Kröber T, Kessler S, Frei J, Bourquin M, Guerin P M. 2010. J Am Mosq Control Assoc. 26: 381-386. In this in-vitro assay the number of mosquito landing on a warm body, simulating an attractive host treated with the tested stimuli, was measured in order to assess the repellence effect.
The published protocol has been adapted as the switch from Anopheles gambiae to Aedes aegypti led to a decrease of mosquitoes placed in the tested cage due to the size difference (i.e. 30 mosquitoes instead of 50) and to an increase of lighting since A. aegypti is a diurnal mosquitoes (i.e. 150 lux instead of 4 lux).
On the sandblasted glass Petri dish covering the warm body (28.3 cm^2), 100 μL of the compounds diluted at different concentrations in ethanol was applied. The number of mosquito landing on the warm body was counted for each stimulus and pure ethanol (solvent) as control.

[1] = Aedes aegypti, 0.016 mg/mL (Table 3), read-out: Percentage of repellence of mosquitoes Aedes aegypti landing on the warm body
[2] = Aedes aegypti, 0.4 mg/mL (Table 3), read-out: Percentage of repellence of mosquitoes Aedes aegypti landing on the warm body
[3] = Aedes aegypti, 10 mg/mL (Table 3), read-out: Percentage of repellence of mosquitoes Aedes aegypti landing on the warm body
[4] = Aedes aegypti, highest tested concentration, 1% (Table 3)
[5] = Aedes aegypti, lowest concentration of 0.0016% (Table 3)
[6] = Aedes aegypti, intermediate concentration of 0.04% (Table 3)
[7] = highest tested concentration, 1% (Table 3)
[8] = Aedes aegypti, read-out: Percentage of repellence of mosquitoes Aedes aegypti landing on the warm body

In the case of `COc1ccc2ccc(=O)oc2c1O` [compound 1551, 8-hydroxy-7-methoxychromen-2-one], the pest or weed control at 16 µg/mL [1] is reported as 55%, the pest or weed control at 400 µg/mL [2] is reported as 42% and the pest or weed control at 10000 µg/mL [3] is reported as 91%. It also gave a pest or weed control at 1 % [4] of over 90% and a pest or weed control at 0.0016 % [5] of over 50%.
`COc1cc(C=CC(=O)O)cc(OC)c1O` [compound 1553, 3-(4-hydroxy-3,5-dimethoxyphenyl)prop-2-enoic acid] was tested, and the pest or weed control at 16 µg/mL [1] was 60%, the pest or weed control at 400 µg/mL [2] was 85% and the pest or weed control at 10000 µg/mL [3] was 43%. It also gave a pest or weed control at 0.04 % [6] of over 75% and a pest or weed control at 0.0016 % [5] of over 50%.
`COc1ccc(CCC(=O)O)cc1OC` [compound 1561, 3-(3,4-dimethoxyphenyl)propanoic acid] showed a pest or weed control at 16 µg/mL [1] of 9%, a pest or weed control at 400 µg/mL [2] of 37% and a pest or weed control at 10000 µg/mL [3] of 84%.
Work on `COc1cc(C=CC(=O)O)cc(OC)c1OC` [compound 1566, 3-(3,4,5-trimethoxyphenyl)prop-2-enoic acid] yielded a pest or weed control at 3.2 µg/mL (Aedes aegypti, 0.0032 mg/mL (Table 2), read-out: Percentage of repellence of mosquitoes Aedes aegypti landing on the warm body) of 0%, a pest or weed control at 16 µg/mL (Aedes aegypti, 0.016 mg/mL (Table 2), read-out: Percentage of repellence of mosquitoes Aedes aegypti landing on the warm body) of 20% and a pest or weed control at 35.7 µg/mL (Aedes aegypti, 0.0357 mg/mL (Table 2), read-out: Percentage of repellence of mosquitoes Aedes aegypti landing on the warm body) of 22%. The pest or weed control at 80 µg/mL (Aedes aegypti, 0.08 mg/mL (Table 2), read-out: Percentage of repellence of mosquitoes Aedes aegypti landing on the warm body) was 0%, the pest or weed control at 178 µg/mL (Aedes aegypti, 0.178 mg/mL (Table 2), read-out: Percentage of repellence of mosquitoes Aedes aegypti landing on the warm body) was 30% and the pest or weed control at 400 µg/mL (Aedes aegypti, 0.4 mg/mL (Table 2), read-out: Percentage of repellence of mosquitoes Aedes aegypti landing on the warm body) was 81%. The pest or weed control at 890 µg/mL (Aedes aegypti, 0.89 mg/mL (Table 2), read-out: Percentage of repellence of mosquitoes Aedes aegypti landing on the warm body) was 69%, the pest or weed control at 2000 µg/mL (Aedes aegypti, 2 mg/mL (Table 2), read-out: Percentage of repellence of mosquitoes Aedes aegypti landing on the warm body) was 57% and the pest or weed control at 10000 µg/mL (Aedes aegypti, 10 mg/mL (Table 2), read-out: Percentage of repellence of mosquitoes Aedes aegypti landing on the warm body) was 96%.
`COc1cc(CC(=O)O)ccc1O` [compound 1567, 2-(4-hydroxy-3-methoxyphenyl)acetic acid] was tested, and the pest or weed control at 16 µg/mL [1] was 54%, the pest or weed control at 400 µg/mL [2] was 86% and the pest or weed control at 10000 µg/mL [3] was 98%. The pest or weed control at 1 % [4] was over 90%, the pest or weed control at 0.04 % [6] was over 75% and the pest or weed control at 0.0016 % (Aedes aegypti) was over 50%.
For `C=CCc1cc(OC)c(OC)c(OC)c1` [compound 1682, 1,2,3-trimethoxy-5-prop-2-enylbenzene], the pest or weed control at 16 µg/mL [1] was 0%, the pest or weed control at 400 µg/mL [2] was 73% and the pest or weed control at 10000 µg/mL [3] was 90%. The pest or weed control at 1 % [4] was over 90%.
`COC(=O)C(C)Cc1ccc(OC)c(OC)c1` (stereo not drawn) [compound 1698, methyl 3-(3,4-dimethoxyphenyl)-2-methylpropanoate] showed a pest or weed control at 16 µg/mL [1] of 45%, a pest or weed control at 400 µg/mL [2] of 88% and a pest or weed control at 10000 µg/mL [3] of 100%. For the same molecule, the pest or weed control at 1 % [4] was over 90%, the pest or weed control at 0.04 % [6] was over 75% and the “mosquito landing within the two minutes of experiments” value [7] was “protect the attractive stimulus for any mosquito landing”.
`COc1cccc(OC)c1OC` [compound 1822, 1,2,3-trimethoxybenzene] was tested, and the pest or weed control at 16 µg/mL [1] was 54%, the pest or weed control at 400 µg/mL [2] was 39% and the pest or weed control at 10000 µg/mL [3] was 100%. For the same molecule, the pest or weed control at 1 % [4] was over 90%, the pest or weed control at 0.0016 % [5] was over 50% and the “mosquito landing within the two minutes of experiments” value [7] was “protect the attractive stimulus for any mosquito landing”.
`COc1cc(CO)cc(OC)c1OC` [compound 1968, (3,4,5-trimethoxyphenyl)methanol] was tested, and the pest or weed control at 16 µg/mL [1] was 23%, the pest or weed control at 400 µg/mL [2] was 38% and the pest or weed control at 10000 µg/mL [3] was 100%. The pest or weed control at 1 % [4] was over 90% and the “mosquito landing within the two minutes of experiments” value [7] was “protect the attractive stimulus for any mosquito landing”.
For `COc1cc(C=NCCN=Cc2cc(OC)c(OC)c(OC)c2)cc(OC)c1OC` [compound 1980, 1-(3,4,5-trimethoxyphenyl)-N-[2-[(3,4,5-trimethoxyphenyl)methylideneamino]ethyl]methanimine], the pest or weed control at 3.2 µg/mL (Aedes aegypti, 0.0032 mg/mL (Table 1), read-out: Percentage of repellence of mosquitoes Aedes aegypti landing on the warm body) was 53%, the pest or weed control at 7.1 µg/mL (Aedes aegypti, 0.0071 mg/mL (Table 1), read-out: Percentage of repellence of mosquitoes Aedes aegypti landing on the warm body) was 57% and the pest or weed control at 16 µg/mL (Aedes aegypti, 0.016 mg/mL (Table 1), read-out: Percentage of repellence of mosquitoes Aedes aegypti landing on the warm body) was 34%. For the same molecule, the pest or weed control at 35.7 µg/mL (Aedes aegypti, 0.0357 mg/mL (Table 1), read-out: Percentage of repellence of mosquitoes Aedes aegypti landing on the warm body) was 32%, the pest or weed control at 53 µg/mL (Aedes aegypti, 0.053 mg/mL (Table 1), read-out: Percentage of repellence of mosquitoes Aedes aegypti landing on the warm body) was 77% and the pest or weed control at 80 µg/mL (Aedes aegypti, 0.08 mg/mL (Table 1), read-out: Percentage of repellence of mosquitoes Aedes aegypti landing on the warm body) was 92%. The pest or weed control at 119 µg/mL (Aedes aegypti, 0.119 mg/mL (Table 1), read-out: Percentage of repellence of mosquitoes Aedes aegypti landing on the warm body) was 75%, the pest or weed control at 178 µg/mL (Aedes aegypti, 0.178 mg/mL (Table 1), read-out: Percentage of repellence of mosquitoes Aedes aegypti landing on the warm body) was 67% and the pest or weed control at 267 µg/mL (Aedes aegypti, 0.267 mg/mL (Table 1), read-out: Percentage of repellence of mosquitoes Aedes aegypti landing on the warm body) was 84%. It also gave a pest or weed control at 400 µg/mL (Aedes aegypti, 0.4 mg/mL (Table 1), read-out: Percentage of repellence of mosquitoes Aedes aegypti landing on the warm body) of 81%, a pest or weed control at 598 µg/mL (Aedes aegypti, 0.598 mg/mL (Table 1), read-out: Percentage of repellence of mosquitoes Aedes aegypti landing on the warm body) of 88% and a pest or weed control at 890 µg/mL (Aedes aegypti, 0.89 mg/mL (Table 1), read-out: Percentage of repellence of mosquitoes Aedes aegypti landing on the warm body) of 63%. The pest or weed control at 2000 µg/mL (Aedes aegypti, 2 mg/mL (Table 1), read-out: Percentage of repellence of mosquitoes Aedes aegypti landing on the warm body) was 86%, the pest or weed control at 4470 µg/mL (Aedes aegypti, 4.47 mg/mL (Table 1), read-out: Percentage of repellence of mosquitoes Aedes aegypti landing on the warm body) was 71% and the pest or weed control at 10000 µg/mL (Aedes aegypti, 10 mg/mL (Table 1), read-out: Percentage of repellence of mosquitoes Aedes aegypti landing on the warm body) was 96%.
Work on `CCc1cc(OC)c(O)c(OC)c1` [compound 2240, 4-ethyl-2,6-dimethoxyphenol] yielded a pest or weed control at 16 µg/mL [1] of 0%, a pest or weed control at 400 µg/mL [2] of 47% and a pest or weed control at 10000 µg/mL [3] of 94%. The pest or weed control at 1 % [4] was over 90%.
For `COc1cccc(OC)c1O` [compound 2244, 2,6-dimethoxyphenol], the pest or weed control at 16 µg/mL [1] was 44%, the pest or weed control at 400 µg/mL [2] was 59% and the pest or weed control at 10000 µg/mL [3] was 85%.
For `COc1cc(C=CCOC(C)=O)cc(OC)c1OC` [compound 2247, 3-(3,4,5-trimethoxyphenyl)-2-acetate], the “Percentage of repellence of mosquitoes Aedes aegypti landing on the warm body” value (“Percentage” for short) (0.016 mg/mL (Table 3)) was 39%, the “Percentage” value (0.4 mg/mL (Table 3)) was 44% and the “Percentage” value (10 mg/mL (Table 3)) was 98%.
In the case of `COc1cc(C)cc(OC)c1OC` [compound 2250, 1,2,3-trimethoxy-5-methybenzene], the “Percentage” value (0.016 mg/mL (Table 3)) is reported as 21%, the “Percentage” value (0.4 mg/mL (Table 3)) is reported as 57% and the “Percentage” value (10 mg/mL (Table 3)) is reported as 100%. For the same molecule, the “mosquito landing within the two minutes of experiments” value [7] was “protect the attractive stimulus for any mosquito landing”.
Work on `COc1cccc(CO)c1OC` [compound 2263, (2,3-dimethoxyphenyl)methanol] yielded a pest or weed control at 16 µg/mL [1] of 52%, a pest or weed control at 400 µg/mL [2] of 96% and a pest or weed control at 10000 µg/mL [3] of 97%. It also gave a pest or weed control at 1 % [4] of over 90%, a pest or weed control at 0.04 % [6] of over 75% and a pest or weed control at 0.0016 % [5] of over 50%.
Molecule `COc1ccc(C#N)c(OC)c1OC` [compound 2266, 2,3,4-trimethoxybenzonitrile] has a pest or weed control at 16 µg/mL [1] of 48%, a pest or weed control at 400 µg/mL [2] of 83% and a pest or weed control at 10000 µg/mL [3] of 89%. For the same molecule, the pest or weed control at 0.04 % [6] was over 75%.
In the case of `COc1cc(C=O)cc(OC)c1OC` [compound 2268, 3,4,5-trimethoxybenzaldehyde], the pest or weed control at 16 µg/mL [8] is reported as 59%, the pest or weed control at 400 µg/mL [8] is reported as 88% and the pest or weed control at 10000 µg/mL [8] is reported as 95%. For the same molecule, the pest or weed control at 0.0016 % (Aedes aegypti) was over 50%, the pest or weed control at 0.04 % (Aedes aegypti) was over 75% and the pest or weed control at 1 % (Aedes aegypti) was over 90%.
With `COc1ccc(C(C)=O)c(OC)c1OC` [compound 2269, 1-(2,3,4-trimethoxyphenyl)ethanone] the pest or weed control at 16 µg/mL [1] was 18%, the pest or weed control at 400 µg/mL [2] was 70% and the pest or weed control at 10000 µg/mL [3] was 100%. The pest or weed control at 1 % [4] was over 90% and the “mosquito landing within the two minutes of experiments” value [7] was “protect the attractive stimulus for any mosquito landing”.
